Test results taken from PMC8571951, “An activity‐based bioprobe differentiates a novel small molecule inhibitor from a LOXL2 antibody and provides renewed promise for anti‐fibrotic therapeutic strategies” (Clinical and Translational Medicine, 2021).

Columns and labels:
[1] = molecular target: T1, Recombinant human LOXL1 (Homo sapiens, UniProt Q08397); assay: Standard Amplex Red assay, rh LOXL1; assay type: biochemical; settings: 30 min pre-incubation
T1 sequence (Q08397 96-574): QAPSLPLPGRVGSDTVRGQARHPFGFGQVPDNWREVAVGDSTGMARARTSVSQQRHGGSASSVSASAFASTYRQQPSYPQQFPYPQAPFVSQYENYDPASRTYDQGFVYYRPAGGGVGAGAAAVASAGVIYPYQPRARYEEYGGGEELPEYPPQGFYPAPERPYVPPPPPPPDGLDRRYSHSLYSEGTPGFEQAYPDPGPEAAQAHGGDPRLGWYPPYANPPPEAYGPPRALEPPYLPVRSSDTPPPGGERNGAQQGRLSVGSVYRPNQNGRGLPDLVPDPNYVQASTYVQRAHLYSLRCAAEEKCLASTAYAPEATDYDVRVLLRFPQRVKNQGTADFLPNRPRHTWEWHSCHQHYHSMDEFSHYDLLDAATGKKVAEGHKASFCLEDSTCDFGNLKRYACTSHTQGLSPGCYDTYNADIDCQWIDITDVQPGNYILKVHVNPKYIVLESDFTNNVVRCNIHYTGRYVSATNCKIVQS
Description: (§1) FIGURE 1 Characteristics of the activity‐based probe (ABP) PXS‐5878. (A) Chemical structure of PXS‐5878, with functional subunits denoted with different colours. The fluoroallylamine moiety (blue) was designed to interact with the lysine tyrosylquinone (LTQ) co‐factor within the lysyl oxidase active sites. An extended linker (green) was incorporated to provide optimal separation between the reactive functional group and the tag, avoiding unfavourable steric hindrance. Biotin was selected as a tag, with higher sensitivity found to be achieved using a double tag (red), resulting in PXS‐5878 as the preferred ABP. (B) Concentration‐dependent inhibition of recombinant human (rh) lysyl oxidase‐like 1‐4 (LOXL1‐4) and native bovine LOX in a standard Amplex Red assay with 30 min pre‐incubation; n = 3–4 independent experiments, standard error of mean (SEM). Native bovine LOX was used as a surrogate for human LOX as both enzymes have similar pharmacology for fluoroallylamines.[2], [9] (C) Irreversible nature of PXS‐5878 enzyme inhibition confirmed using a jump dilution assay. […]
(§2) FIGURE 2 Characteristics of PXS‐5338 and inhibition of lysyl oxidase‐like 2 (LOXL2) enzymatic activity in vitro and in vivo. […] (B) Tissue levels of PXS‐5338 measured 1 and 4 h after a single oral dose of 30 mg/kg in the rat. […]

[2] = molecular target: T2, LOXL3 (Homo sapiens, UniProt P58215); assay: Standard Amplex Red assay, rh LOXL3; assay type: biochemical; settings: 30 min pre-incubation
T2 sequence (P58215 26-753): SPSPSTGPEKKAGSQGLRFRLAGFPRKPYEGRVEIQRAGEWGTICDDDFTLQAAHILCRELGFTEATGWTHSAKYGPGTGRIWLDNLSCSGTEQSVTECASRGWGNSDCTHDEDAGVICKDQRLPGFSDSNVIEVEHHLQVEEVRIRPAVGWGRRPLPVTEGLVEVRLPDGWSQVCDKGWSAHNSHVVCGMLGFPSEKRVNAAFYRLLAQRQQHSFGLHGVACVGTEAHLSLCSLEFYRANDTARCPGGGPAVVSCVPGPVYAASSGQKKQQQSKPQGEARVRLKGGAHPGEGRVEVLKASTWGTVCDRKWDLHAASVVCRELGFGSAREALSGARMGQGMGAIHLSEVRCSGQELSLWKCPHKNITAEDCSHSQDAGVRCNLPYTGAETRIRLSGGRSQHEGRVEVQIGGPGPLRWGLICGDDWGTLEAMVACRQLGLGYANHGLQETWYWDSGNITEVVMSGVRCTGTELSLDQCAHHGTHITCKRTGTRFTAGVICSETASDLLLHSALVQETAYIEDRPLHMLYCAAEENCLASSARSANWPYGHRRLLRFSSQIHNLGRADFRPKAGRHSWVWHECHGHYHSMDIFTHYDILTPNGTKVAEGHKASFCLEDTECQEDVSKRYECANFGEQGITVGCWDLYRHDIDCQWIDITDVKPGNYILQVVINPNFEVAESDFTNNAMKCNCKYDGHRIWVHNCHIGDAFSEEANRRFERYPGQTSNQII
Description: as §1, §2

IC50 [1] | IC50 [2] | Compound
2530 nM | 385 nM | CC(C)c1c(Cc2ccc(S(C)(=O)=O)nc2)c2ncccc2n1C/C(F)=C/CN [PXS-5338]
1770 nM | 973 nM | NC/C=C(\F)CS(=O)(=O)c1cccc(Cn2cc(-c3cc(OCCCc4cn(CCCCC[C@@H]5SC[C@@H]6NC(=O)N[C@@H]65)nn4)cc(OCCCc4cn(CCCCC[C@@H]5SC[C@@H]6NC(=O)N[C@@H]65)nn4)c3)nn2)c1 [PXS-5878]
